The values that follow come from US9561231B2 (AbbVie Inc., priority 2012, dated 2017).

Assay [1] deals with LPS induced IL-6 production. Kind of assay: LPS (lipopolysaccharide) induced IL-6 production mouse assay. Particulars: 30 mg/kg oral, 1 h before LPS 2.5 mg/kg i.p.; serum IL-6 2 h after LPS; p<0.05.
Protocol: Severe combined immunodeficient female mice (5 per group) received an intraperitoneal challenge of lipopolysaccharide (2.5 mg/kg, L2630 E. coli 0111:B4) one hour after oral administration of compounds. Mice were euthanized 2 hours after lipopolysaccharide injection, blood was removed by cardiac puncture, and then the serum harvested from the blood samples was frozen at −80° C. On the day of the assay the serum samples were brought to room temperature and then diluted 1:20 in phosphate-buffered saline containing 2% bovine serum albumin. Interleukin-6 measurements were performed using a cytokine assay from Meso Scale Discovery (Gaithersburg, Md.) for mouse serum analysis according to the manufacturer's protocol and read on a SECTOR Imager 6000 (Meso Scale Discovery, Gaithersburg, Md.) instrument. Statistical analysis was performed using Prism software (version 5.0) incorporating Dunnett's one way ANOVA. The IL-6 mean and standard deviation of the group of vehicle treated animals were compared with the IL-6 mean and standard deviation of the group treated with drug. A p value <0.05 means that there is less than a 5% probability that the mean values in the two groups are equal.
A further assay relates to A-375. Briefly: Proliferation panel assay: A-375. It counts as cell-based. The conditions noted are these: Homo sapiens, 120 h; A-375 (Melanoma); 5 days, Cell Titer Glo; read-out: Cellular Proliferation EC50.
In the next assay the test system is MDAMB453. Briefly: Proliferation panel assay: MDAMB453. Particulars: Homo sapiens, MDA-MB-453, 120 h; MDAMB453 (Breast); 5 days, Cell Titer Glo; read-out: Cellular Proliferation EC50. It counts as cell-based.
In a further assay the test system is Ramos. Briefly: Proliferation panel assay: Ramos. It counts as cell-based. Particulars: Homo sapiens, 120 h; Ramos (NHL); 5 days, Cell Titer Glo; read-out: Cellular Proliferation EC50.
A further assay concerns SK-LMS-1. Briefly: Proliferation panel assay: SK-LMS-1. It counts as cell-based. The conditions noted are these: Homo sapiens, 120 h; SK-LMS-1 (Sarcoma); 5 days, Cell Titer Glo; read-out: Cellular Proliferation EC50.
In another assay the test system is Ly18. Briefly: Proliferation panel assay: Ly18. Type of assay: cell-based. The conditions noted are these: 120 h; Ly18 (NHL); 5 days, Cell Titer Glo; read-out: Cellular Proliferation EC50.
The target of assay [2] is T1, first (BD1: amino acids K57-E168) bromodomain of BRD4 (Homo sapiens, UniProt O60885).
T1 construct: His-tagged first (BD1: amino acids K57-E168)
Briefly: TR-FRET bromodomain binding assay, BRD4 BD1. The conditions noted are these: TR-FRET assay protocol (A-G, compound concentration range); Ki calculated from IC50, probe Kd and probe concentration; read-out: TR-FRET Binding Ki: BRD4 (BDI_K57-E168). The method, boiled down:
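Displacement of Alexa647-labeled BET-inhibitor probe from His-tagged bromodomain, TR-FRET read-out; buffer 20 mM Na phosphate pH 6.0, 50 mM NaCl, 0.01% Triton X-100. IC50 by 4PL fit; Ki calculated from IC50, probe Kd and probe concentration.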

Another assay concerns H1299. Kind of assay: Proliferation panel assay: H1299. It counts as cell-based. The conditions noted are these: Homo sapiens, NCI-H1299, 120 h; H1299 (NSCLC); 5 days, Cell Titer Glo; read-out: Cellular Proliferation EC50.
In a further assay the test system is MDAMB231. Briefly: Proliferation panel assay: MDAMB231. It counts as cell-based. The conditions noted are these: Homo sapiens, MDA-MB-231, 120 h; MDAMB231 (Breast); 5 days, Cell Titer Glo; read-out: Cellular Proliferation EC50.

Each structure is given as a SMILES string.

For the molecule `Cc1cc(-c2cc(NS(C)(=O)=O)ccc2Oc2ccccc2)c[nH]c1=O` [Example 261, N-[3-(5-methyl-6-oxo-1,6-dihydropyridin-3-yl)-4-phenoxyphenyl]methanesulfonamide], in assay [1], the “Inhibition of LPS induced IL-6 production, % inhibition” value is recorded as 42.2 @ 30 mg/kg %. Moreover, the EC50 in the assay with A-375 is 498 nM; with MDAMB453 it was 340 nM; in the assay with Ramos, 390 nM; with SK-LMS-1 it was 348 nM; in the assay on Ly18, 510 nM; in the assay on H1299 it was 740 nM. The EC50 in the assay with MDAMB231 is 460 nM. Further, the Ki in assay [2] is 25.9 nM.
Consider `Cn1cc(-c2cc(NS(C)(=O)=O)ccc2Oc2ccccc2)ccc1=O` [Example 224, N-[3-(1-methyl-6-oxo-1,6-dihydropyridin-3-yl)-4-phenoxyphenyl]methanesulfonamide], for which the EC50 with A-375 was determined as 430 nM; with MDAMB453, 320 nM; in the assay with Ramos it was 370 nM; in the assay on SK-LMS-1, 448 nM; in the assay on Ly18 it was 520 nM; in the assay on H1299, 750 nM. In the assay on MDAMB231, the EC50 was 720 nM. For the same molecule, the Ki in assay [2] is 48.2 nM.
